Where two headings read alike, the source gives them in different places.

One compound from patent US5235045A, “Non-azo naphthalimide dyes” (priority 1992, dated 1993) can be followed below.

For experiment [1], the system named is H9 cells. The experiment is described as follows: Dye-mediated light kill of H9 cells (trypan blue). It is filed as cell-based. The following applies: Homo sapiens, 10% FCS medium, read-out: Percent Viability. The protocol: Photoinduced killing of H9 cells with Compound 1b as the mediator of photochemical toxicity were carried out according to the following protocol:
Compound 1b was added to the H9 cells (5×10^5 /ml) in medium or 100% human plasma to give dye concentrations of 0, 25 and 100 μM (1 control, 2 duplicates of both non-azo dye samples). Two 2-ml aliquots of each of the duplicated dye samples was irradiated with 10J/cm^2 total energy of 450±35 nm wavelength light in a sealed 3-ml test tube. Immediately after irradiation, the cells were centrifuged at 450×g for 10 minutes, and the pellets resuspended in the original volume of fresh RPMI-1640+10% FCS+gentamycin. The cell suspensions were transferred to a 12-well TC plate and placed in a 37° C. 5% CO2 incubator. Cell viability counts (trypan blue) were carried out at 4, 24, 48, and 72 hours post irradiation. The results of these experiments are summarized in Tables 7 (medium) and 8 (100% human plasma).
Photoinduced killing of H9 cells with Compound VII as the mediator of photochemical toxicity were carried out in 10% FCS medium according to the same general protocol using concentrations of the dye at 0, 5, 25 and 100 μM., and irradiating at 420±5 nm at 10J/cm^2 total energy.

The next experiment has as its system BHV-1 antigen. Description: Surface antigen assays of BHV-1 on FBL cells. The format is cell-based, Bovine Herpes Virus Type I (BHV-1). The protocol: Surface Antigen Assays The BHV-1 virus prepared as above (20480 TCID50) was (i) held as control; (ii) treated with dye (concentrations from 7.5 to 250 ng/ml) in cell culture medium; or (iii) treated with Compound VII and light-treated in cell culture medium. All virus was plated in 96-well flat bottom plates for 24 hours in 5x replicates on FBL cells. At that time the wells were examined for CPE, scored, and 2x wells were fixed in acetone and paraformaldehyde for examination of intracellular and surface BHV-1 antigen, respectively. The cells were treated with 50 μl of an anti-BHV-1 monoclonal antibody (gift of Dr. J. Collins, Diagnostic Laboratory, Colorado State University, School of Veterinary Medicine) used as a common diagnostic reagent, for 30 minutes at room temperature. The cells were further stained with either FITC-labeled anti-mouse or biotinylated anti-mouse and avidin rPE. The samples were placed on slides and read by fluorescent microscopy using a 495 nm excitor filter and 525 long pass emission filter on a Leitz epifluorescent microscope.

The test system of experiment [2] is H9 cells. The experiment is described as follows: Effects on H9 cells of Ed6Br with prior activation by 420 nm light (Trypan Blue). The format is cell-based. The following applies: Homo sapiens, H9, 24 h, read-out: % Viable Cells. As for the experimental part: H9 cells were cultivated in RPMI-1640 medium containing an additional 10% fetal calf serum at 37.5° C. in air having added 5% CO2. A 5.46 ml aliquot of cell suspension containing 9.16×10^5 H9 cells per ml was harvested, the cells sedimented at 450 x g for 10 minutes and resuspended in fresh growth medium. Two hundred microliter aliquots of the suspension were centrifuged as above and the resulting cell pellet served for resuspension in dye plus medium suspension for this study.
Six milliliters of suspension of Cremophor EL micelles containing Ed6Br in RPMI-1640 containing 10% additional fetal calf serum was made by diluting a 2.5 millimeter solution of the dye in Cremophor EL to give an average Ed6Br concentration of […], and the resulting suspension divided into 2 three milliliter aliquots. One aliquot was irradiated with 420 #5 nm light filtered from a xenon arc lamp at an irradiance of 20 mW/cm^2 to a total fluence of 200 J/cm^2. The companion aliquot was wrapped in aluminum foil and handled in identical fashion to the irradiated sample. These two aliquots served as stocks for deforming effects of both previously irradiated and un-irradiated Ed6Br at different concentrations from 0 up to 100 mM on H9 cells kept in the dark. Dulutions of the stock dye suspension into additional fresh growth medium were made within 1 hour of light irradiation to give dye-medium suspensions with average Ed6Br concentrations of […] for both previously irradiated and dark dye samples. The H9 cell pellets were resuspended in these dye-Cremophor EL suspensions and held at 37.5° C. in an air atmosphere containing an additional 5% CO2. After 24 hrs. culture of the number of total and viable […] was determined by Trypan Blue exclusion using a hemocytometer and microscope for cell counting.

Experiment [3] relates to H9 cells. The experiment is described as above. The format is cell-based. The following applies: Homo sapiens, H9, 24 h, read-out: % Viable Cells. The source holds these as a separate data set.
[4] abbreviates: H9, light or radiation study, 4 h, hν 420±5 nm 10J/cm^2, 4 hours.
Setting [5] is: photochemically attenuated virus.
[6] abbreviates: virus and dye, dark control, 7.5 to 250 ng/ml.

For `CCCCCCNc1c(Br)cc2c3c(cccc13)C(=O)N(CCCCCC)C2=O` [Compound VII, 3-bromo-4-(hexyl)amino-N-hexyl-1,8-naphthalimide], the viability at 5 µM with H9 cells [1] (H9, 4 h, no hν, 4 hours) came out at 86.5%; with H9 cells [1] (setting [4]), 0%. Besides, the viability at 25 µM in the experiment on H9 cells [1] (H9, 4 h, no hν, 4 hours (Table 9)) was 90%; in the experiment with H9 cells [1] (setting [4]), 0%; with H9 cells [2] (no previous light activation), 57.9%; in the experiment on H9 cells [2] (previous light activation), 4.9%. Also, the viability at 100 µM came out at 1.8% with H9 cells [1] (H9, light or radiation study, 4 h, 100 μM, hν 420±5 nm 10J/cm^2, 4 hours, light reached only approximately 2 mm); 28% in the experiment with H9 cells [3] (no previous light activation); 0% with H9 cells [3] (previous light activation). Besides, the internal viral antigen result was “internal antigen was observed at all concentrations of Compound VII which showed CPE” in the experiment on BHV-1 antigen (setting [5]); “Internal antigen was observed and correlated with CPE levels” with BHV-1 antigen (setting [6]). In addition, the surface viral antigen entry is recorded as “Surface antigen was observed at all concentrations” with BHV-1 antigen (setting [5]) and “Much surface viral antigen was detected at all dye concentrations” in the experiment on BHV-1 antigen (setting [6]). Further, the figures for the viability at 1 µM with H9 cells [2] (no previous light activation) and in the experiment with H9 cells [2] (previous light activation) were 72.7% and 68.4%, respectively. For the same compound, the viability at 10 µM was 77.2% in the experiment with H9 cells [2] (no previous light activation) and 31.8% in the experiment with H9 cells [2] (previous light activation). The viability at 50 µM in the experiment with H9 cells [2] (no previous light activation) amounted to 27.4%; with H9 cells [2] (previous light activation), 0%. In addition, the viability at 75 µM was 33.9% in the experiment on H9 cells [2] (no previous light activation) and 0% with H9 cells [2] (previous light activation).
